Literature values as cited in US20210060038A1, “COMPOSITIONS FOR ELIMINATING BACTERIAL PROMOTORS OF COLORECTAL CANCER BY INTRALUMINAL APPLICATION” (priority 2018, published 2021).
Where two headings read alike, the source gives them in different places.

Assays:
[1] = test system: IPEC-J2 cells; details: IPEC-J2 cells exposed at 580 μg/mL, within 15 minutes
[2] = not given; remark: listed apart in the source
[3] = test system: anaerobic genera Peptostreptococcus (including Peptoniphilus, Finegoldia and Anaerococcus)
[4] = test system: Pseudomonas aeruginosa; details: maximum
[5] = test system: resistant bacterial strains; details: overall, controlled clinical trials, oral or intravenous
[6] = test system: Staphylococcus, Streptococcus, Enterococcus, Neisseria, Escherichia, Proteus (indole-negative), Serratia, Salmonella, Shigella, Pseudomonas, Haemophilus, and …
[7] = test system: anaerobic Bacteroides fragilis group of bacteria
[8] = test system: indole-positive Proteus spp., Klebsiella and Enterobacter spp.
[9] = not given; remark: listed apart in the source
[10] = test system: strains of organisms from the susceptible genera
[11] = test system: polymorphonuclear leukocytes
[12] = test system: anaerobic genus Fusobacterium
[13] = test system: human polymorphonuclear leukocytes; details: rapid passive diffusion
[14] = test system: human macrophages; details: extracellular concentrations 0.125 to 1 μg/mL
[15] = sealed sachets at room temperature
[16] = test system: mouse macrophage cell line
[17] = in vivo

C[C@@H]1O[C@@H]1P(=O)(O)O [Fosfomycin calcium monohydrate]
intracellular concentration [1]: ~30 µg/mL
solubility in water (calcium monohydrate): sparingly soluble in water
pH of 0.4% solution ([2]; 0.4% solution): 8.1-9.6

C[C@@H]1O[C@@H]1P(=O)(O)O [fosfomycin, [(2R,3S)-3-methyloxiran-2-yl]phosphonic acid]
activity against Peptostreptococcus [3]: active
appearance of resistant bacterial strains [4]: 15%
appearance of resistant bacterial strains [5]: 3.0%
activity against aerobic genera [6]: active
activity against Bacteroides fragilis group [7]: inactive
activity against indole-positive Proteus spp., Klebsiella and Enterobacter spp. [8]: less active
eosinophilia ([9]; in vivo): 0.2%
transient rashes (allergy) ([9]; in vivo): 0.3 % of cases
transiently raised liver enzymes ([9]; systemically administered): 0.3 % of cases
synergistic effect, share of tested strains ([10]; early studies, various antibiotic combinations): 70-100%
synergy rates ([10]; subsequent more extensive studies): 36-74%
concentration in polymorphonuclear leukocytes relative to extracellular fluid [11]: up to twice those of the extracellular fluid
activity against Fusobacterium [12]: active

Cc1ncc([N+](=O)[O-])n1CCO [metronidazole]
activity against Bacteroides fragilis group [7]: active
time for intracellular levels to approach equilibrium with extracellular levels [13]: ≤ 15 min
activity against Fusobacterium [12]: active

C[C@@H](O)[C@H]1C(=O)N2C(C(=O)O)=C(S[C@@H]3CN[C@H](C(=O)N(C)C)C3)[C@H](C)[C@H]12 [meropenem]
cellular to extracellular concentration ratio [14]: 3-12

C[C@@H]1O[C@@H]1P(=O)(O)O.NC(CO)(CO)CO [Fosfomycin trometamol]
solubility in water: highly soluble in water
pH of 5% solution [2]: 3.5-5.5
stability of granulate [15]: long-term stability

C[C@@H](O)[C@H]1C(=O)N2C(C(=O)O)=C(S[C@@H]3CN[C@H](C(=O)Nc4cccc(C(=O)O)c4)C3)[C@H](C)[C@H]12 [ertapenem]
extracellular concentration giving bactericidal intracellular concentrations [16]: ≥ 15 µg/mL

C[C@@H]1O[C@@H]1P(=O)(O)O [Fosfomycin disodium]
bioavailability [17]: high bioavailability
solubility in water: highly soluble in water
pH of 5% solution [2]: 9.0-10.5
